# ChEMBL document CHEMBL6120988, “Mitochondria-targeting artesunate-rhein conjugates: Linker-modulated cell-permeability, heme-affinity and anticancer activity” (Eur J Med Chem, 2025)
# Calls of active or inactive are those of the source. No cut-off for these calls is given here.
# Assays:
# [1] = test system: 4T1; test: Induction of repolarization of M2 macrophages into M1 macrophages in mouse 4T1 cells assessed as ratio of M2 to M1 macrophages; type: functional, cell-based
# [2] = test system: 4T1; test: Induction of mitochondrial dysfunction in mouse 4T1 cells assessed as oxygen consumption rate; type: functional, cell-based
# [3] = test system: 4T1; test: Antitumor activity against mouse 4T1 cells allografted in female BALB/c mouse assessed as reduction in tumor tissue volume at 100 mg/kg, po administrated every day for 15 times and measured after 22 days relative to control; type: functional, organism-based; conditions: time 22.0 day
# [4] = test system: 4T1; test: Antitumor activity against mouse 4T1 cells allografted in female BALB/c mouse assessed as increase in infiltration of CD8+IFN-gamma+ lymphocytes in tumors at 100 mg/kg, po administrated every day for 15 times and measured after 22 days by flow cytometry (reference value: 5.99%); type: functional; conditions: time 22 day
# [5] = Drug localization in mitochondria of mouse 4T1 cells assessed as fluorescence intensity measured using pearson co-efficient incubated for 10 hrs by mito-tracker red fluorescent dye based confocal laser scanning microscopic analysis; type: ADME; conditions: 4t1, 10 h
# [6] = Toxicity against female BALB/c mouse allografted with mouse 4T1 cells assessed as hemoglobin at 100 mg/kg, po administrated every day for 15 times and measured after 22 days; type: organism-based; conditions: in vivo, 528 h, time 22 day
# [7] = test system: 4T1; test: Induction of immunogenic cell death in mouse 4T1 cells allografted in female BALB/c mouse assessed as increase in CD80+ CD86+CD11c+ cells DC maturation at 10 mg/kg, iv administrated every 3 days for 5 times and measured after 22 days by flow cytometry (reference value: 7.77 %); type: functional; conditions: time 22 day
# [8] = Toxicity against female BALB/c mouse allografted with mouse 4T1 cells assessed as effect on red blood cells at 100 mg/kg, po administrated every day for 15 times and measured after 22 days; type: organism-based; conditions: in vivo, 528 h, time 22 day
# [9] = test system: 4T1; test: Immunostimulatory activity in mouse 4T1 cells implanted in female BALB/c mouse assessed as reduction in immunosuppressive CD206+ expression; type: functional, cell-based
# [10] = test system: 4T1; test: Potency index, ratio of paclitaxel IC50 to test compound IC50 for cytotoxicity against mouse 4T1 cells assessed as cell viability by MTT assay; type: functional
# [11] = Toxicity against female BALB/c mouse allografted with mouse 4T1 cells assessed as mean corpuscular volume at 10 mg/kg, iv administrated every 3 days for 5 times and measured after 22 days; type: organism-based; conditions: in vivo, 528 h, time 22 day
# [12] = Oral bioavailability in mouse at 100 mg/kg; type: ADME, organism-based; conditions: in vivo
# [13] = Half life in mouse iv dosed mouse; type: ADME, organism-based; conditions: in vivo
# [14] = Toxicity against female BALB/c mouse allografted with mouse 4T1 cells assessed as mean corpuscular volume at 100 mg/kg, po administrated every day for 15 times and measured after 22 days; type: organism-based; conditions: in vivo, 528 h, time 22 day
# [15] = test system: A549; test: Cytotoxicity against human A549 cells assessed as cell viability by MTT assay; type: functional, cell-based
# [16] = test system: 4T1; test: Cytotoxicty against mouse 4T1 cells assessed as cell death by measuring red staining by calcein/PI staining based live/dead staining analysis; type: functional
# [17] = test system: 4T1; test: Induction of immunogenic cell death in mouse 4T1 cells assessed as increase in ATP release by measuring increase in red fluorescence by CLSM analysis relative to R/A group; type: functional, cell-based
# [18] = test system: 4T1; test: Antitumor activity against mouse 4T1 cells allografted in female BALB/c mouse assessed as increase in infiltration of CD3+ CD8+ T lymphocytes in tumors at 100 mg/kg, po administrated every day for 15 times and measured after 22 days by flow cytometry (reference value: 6.91 %); type: functional; conditions: time 22 day
# [19] = Toxicity against female BALB/c mouse allografted with mouse 4T1 cells assessed as hemoglobin at 10 mg/kg, iv administrated every 3 days for 5 times and measured after 22 days; type: organism-based; conditions: in vivo, 528 h, time 22 day
# [20] = test system: 4T1; test: Antitumor activity against mouse 4T1 cells allografted in female BALB/c mouse assessed as increase in nuclear shrinkage at 10 mg/kg, iv administrated every 3 day for 5 times and measured after 22 days; type: functional, organism-based; conditions: time 22.0 day
# [21] = test system: 4T1; test: Immunostimulatory activity in mouse 4T1 cells implanted in female BALB/c mouse assessed as increase in immunostimulatory CD86+ expression; type: functional, cell-based
# [22] = test system: 4T1; test: Antitumor activity against mouse 4T1 cells allografted in female BALB/c mouse assessed as disappearance of cancer cells at 100 mg/kg, po administrated every day for 15 times and measured after 22 days by H and E staining based analysis; type: functional, organism-based; conditions: time 22.0 day
# [23] = Toxicity in female BALB/c mouse allografted with mouse 4T1 cells assessed as survival rate at 100 mg/kg, po administrated every day for 15 times and measured after 22 days relative to control; type: organism-based; conditions: in vivo, 528 h, time 22 day
# [24] = Drug uptake in mouse 4T1 cells after 3 hrs by flow cytometry analysis; type: ADME, cell-based; conditions: 4t1, 3 h
# [25] = test system: U-87 MG; test: Cytotoxicity against human U87 cells assessed as cell viability by MTT assay; type: functional, cell-based, U-87MG ATCC
# [26] = Toxicity in female BALB/c mouse allografted with mouse 4T1 cells assessed as effect on blood platelet at 10 mg/kg, iv administrated every 3 days for 5 times and measured after 22 days; type: organism-based; conditions: in vivo, 528 h, time 22 day
# [27] = Toxicity against female BALB/c mouse allografted with mouse 4T1 cells assessed as effect on white blood cells at 10 mg/kg, iv administrated every 3 days for 5 times and measured after 22 days; type: organism-based; conditions: in vivo, 528 h, time 22 day
# [28] = test system: MCF7; test: Cytotoxicity against human MCF7 cells assessed as cell viability by MTT assay; type: functional, cell-based
# [29] = test system: 4T1; test: Induction of immunogenic cell death in mouse 4T1 cells assessed as increase in CRT exposure on cell surface by measuring increase in red fluorescence by CLSM analysis (reference value: 2.55%); type: functional
# [30] = Toxicity against female BALB/c mouse allografted with mouse 4T1 cells assessed as effect on red blood cells at 10 mg/kg, iv administrated every 3 days for 5 times and measured after 22 days; type: organism-based; conditions: in vivo, 528 h, time 22 day
# [31] = test system: 4T1; test: Antitumor activity against mouse 4T1 cells allografted in female BALB/c mouse assessed as increase in nuclear shrinkage at 100 mg/kg, po administrated every day for 15 times and measured for 22 days; type: functional, organism-based; conditions: time 22.0 day
# [32] = test system: HeLa; test: Cytotoxicity against human Hela cells assessed as cell viability by MTT assay; type: functional, cell-based
# [33] = test system: 4T1; test: Antitumor activity against mouse 4T1 cells allografted in female BALB/c mouse assessed as increase in infiltration of CD44+CD62L- lymphocytes in tumors at 100 mg/kg, po administrated every day for 15 times and measured after 22 days by flow cytometry (reference value: 5.5%); type: functional; conditions: time 22 day
# [34] = test system: 4T1; test: Induction of mitochondrial dysfunction in mouse 4T1 cells assessed as basal respiration; type: functional, cell-based
# [35] = Toxicity in female BALB/c mouse allografted with mouse 4T1 cells assessed as change in body weight at 100 mg/kg, po administrated every day for 15 times and measured every 2 days for 22 days relative to control; type: organism-based; conditions: in vivo, 528 h, time 22 day
compound,measurement,setting,value
C[C@H]1[C@H](OC(=O)CCC(=O)OCCCCOC(=O)c2cc(O)c3c(c2)C(=O)c2cccc(O)c2C3=O)O[C@@H]2O[C@@]3(C)CC[C@H]4[C@H](C)CC[C@@H]1[C@@]24OO3,Activity,[1],Active; Compound Triggers Repolarization By Reversing The Ratio Of M2 To M1 Macrophages
same,Activity,[2],Active
same,Activity,[3],Active; Tumor Lighter Weight Than Pbs Treatment
same,Activity,[4],13.3%
same,Flu intensity,[5],0.96
same,Activity,[6],Non-toxic
same,Activity,[7],20%
same,Activity,[8],Non-toxic
same,Activity,[9],Active
same,Ratio IC50,[10],3
same,Activity,[11],Non-toxic
same,bioavailability,[12],15.8%
same,half-life,[13],7.01 h
same,Activity,[14],Non-toxic
same,IC50,[15],2790 nM
same,Activity,[16],Active
same,Activity,[17],Active
same,Activity,[18],15.4%
same,Activity,[19],Non-toxic
same,Activity,[20],Active
same,Activity,[21],Active
same,Activity,[22],Active
same,Survival,[23],<= 39 day
same,Activity,[24],Active
same,IC50,[25],2140 nM
same,Activity,[26],Non-toxic
same,Activity,[27],Non-toxic
same,IC50,[28],1900 nM
same,Activity,[29],Active
same,Activity,[29]; record 2,32.82%
same,Activity,[30],Non-toxic
same,Activity,[31],Active
same,IC50,[32],2430 nM
same,Activity,[33],17.2%
same,Activity,[34],Active
same,Activity,[35],Non-toxic
